Measured values reported in patent US20090311237A1, “Combination therapy using a soluble hyaluronidase and a bisphosphonate” (priority 2008, published 2009).
Where two headings read alike, the source gives them in different places.

Test: Pharmacokinetics of ZA in pig serum after IV or SC infusion with or without rHuPH20 (LC-MS-MS, non-compartmental analysis)
Assay type: in vivo
Procedure: A pharmacokinetic study of zoledronic acid (ZA) co-administered with rHuPH20 in female Yorkshire swines was conducted. The primary objective of the study was to determine the bioavailability of zoledronic acid dosed via subcutaneous (SC) co-administration with human recombinant hyaluronidase PH20 (rHuPH20) and to compare the overall exposure to an equivalent IV dose.
Animals in Study Group 1 were dosed with 0.15 mg/kg ZA given via a 20-minute IV infusion. Animals in Study Groups 2 and 3 were dosed subcutaneously (SC) with 0.15 mg/kg ZA without and with rHuPH20, respectively, in different SC delivery volumes.
Following ZA dose administration, serial blood samples were collected via vascular access ports (VAPs) for serum preparation and determination of ZA concentrations. Blood collection times were at 1, 3, 5, 10, 15, 20, 30, 45, and 60 minutes, and at 1.5, 2, 3, 4, 6, 8, 10, 24, 48, and 72 hours post dose. Urine samples were also collected to compare excretion characteristics between IV and SC routes of administration. Collection times for urine were at 15 minutes before dosing (−15 min.), continuously from dose initiation to 2 hours post dose, and at 4, 6, 8, and 24 hours post dose thereafter.
Serum concentration of ZA was determined using a qualified LC-MS-MS assay after derivatization with diazomethane (Zhu, L S et al. (2006) Rapid Commun. Mass Spectrom. 20: 3421-3426; “Qualification Data of An LC-MS/MS Method for the Determination of Zoledronate in Porcine Serum”, MDS Pharma Services Study No. AA43671-01, Report Date 14 Sep. 2007). The assay range was from 2.0 to 400 ng/mL with a lower limit of quantitation (LLOQ) at 2.0 ng/mL. Urine concentration of ZA was determined by a similar well qualified LC-MS-MS method (“Qualification Data of An LC-MS/MS Method for the Determination of Zoledronate in Porcine Urine”, MDS Pharma Services Study No. AA43671-02, Report Date 14 Sep. 2007) with an assay LLOQ at 10 ng/mL.
Pharmacokinetic (PK) analyses of ZA serum concentration versus time data were conducted using WinNonlin v5.1 (Pharsight, Mountain View, Calif.). Non-compartmental analysis was used for derivation of primary and secondary pharmacokinetic (PK) parameters. AUC, Cmax, and Tmax were compared between dose routes, between co-administration with rHuPH20, and with dose of rHuPH20.

[1] = female, Yorkshire, pig, serum, subcutaneous, […], pig 66, Study Group 3, SC, ZA […], rHuPH20 10000 U/mL, 100 mL over 16 min, read-out: Zoledronic Acid Serum Concentration
[2] = female, Yorkshire, pig, serum, subcutaneous, […], pig 68, Study Group 3, SC, ZA […], rHuPH20 10000 U/mL, 10 mL over 1.6 min, read-out: Zoledronic Acid Serum Concentration
[3] = female, Yorkshire, pig, serum, subcutaneous, pig 56, Study Group 3, SC, ZA […], rHuPH20 10000 U/mL, 25 mL over 4 min, read-out: Zoledronic Acid Serum Concentration
[4] = female, Yorkshire, pig, serum, subcutaneous, pig 58, Study Group 3, SC, ZA […], rHuPH20 10000 U/mL, 50 mL over 8 min, read-out: Zoledronic Acid Serum Concentration
[5] = female, Yorkshire, pig, serum, subcutaneous, pig 68, Study Group 3, SC, ZA […], rHuPH20 10000 U/mL, 10 mL over 1.6 min, read-out: Zoledronic Acid Serum Concentration

O=P(O)(O)C(O)(Cn1ccnc1)P(=O)(O)O [ZA, 1-hydroxy-2-(1H-imidazol-1-yl)ethylidene-1,1-bisphosphonic acid]
concentration at 4 h (female, Yorkshire, pig, serum, subcutaneous, […], pig 64, Study Group 3, SC, ZA […], rHuPH20 10000 U/mL, 100 mL over 16 min, read-out: Zoledronic Acid Serum Concentration): 19 ng/mL
concentration at 6 h (female, Yorkshire, pig, serum, subcutaneous, […], pig 64, Study Group 3, SC, ZA […], rHuPH20 10000 U/mL, 100 mL over 16 min, time 6 h, read-out: Zoledronic Acid Serum Concentration): 5.75 ng/mL
concentration at 0.05 h [1]: 12 ng/mL
concentration at 0.333 h [1]: 103 ng/mL
concentration at 0.5 h [1]: 78.2 ng/mL
concentration at 1 h [1]: 53.3 ng/mL
concentration at 2 h [1]: 23.2 ng/mL
concentration at 3 h [1]: 11.4 ng/mL
concentration at 4 h [1]: 6.39 ng/mL
concentration at 0.05 h [2]: 342 ng/mL
concentration at 0.333 h [2]: 201 ng/mL
concentration at 0.5 h [2]: 175 ng/mL
concentration at 0.05 h [3]: 101 ng/mL
concentration at 0.333 h [3]: 235 ng/mL
concentration at 0.5 h [3]: 194 ng/mL
concentration at 1 h [3]: 128 ng/mL
concentration at 2 h [3]: 59.7 ng/mL
concentration at 3 h [3]: 31.2 ng/mL
concentration at 4 h [3]: 17.6 ng/mL
concentration at 5 h (female, Yorkshire, pig, serum, subcutaneous, pig 56, Study Group 3, SC, ZA […], rHuPH20 10000 U/mL, 25 mL over 4 min, time 5 h, read-out: Zoledronic Acid Serum Concentration): 19.6 ng/mL
concentration at 6 h (female, Yorkshire, pig, serum, subcutaneous, pig 56, Study Group 3, SC, ZA […], rHuPH20 10000 U/mL, 25 mL over 4 min, time 6 h, read-out: Zoledronic Acid Serum Concentration): 7.21 ng/mL
concentration at 8 h (female, Yorkshire, pig, serum, subcutaneous, pig 56, Study Group 3, SC, ZA […], rHuPH20 10000 U/mL, 25 mL over 4 min, time 8 h, read-out: Zoledronic Acid Serum Concentration): 2.28 ng/mL
concentration at 0.05 h [4]: 73.8 ng/mL
concentration at 0.333 h [4]: 270 ng/mL
concentration at 0.5 h [4]: 177 ng/mL
concentration at 1 h [4]: 107 ng/mL
concentration at 1 h [5]: 90.6 ng/mL
concentration at 2 h [5]: 43.2 ng/mL
concentration at 3 h [5]: 17 ng/mL
concentration at 4 h [5]: 7.09 ng/mL
concentration at 6 h (female, Yorkshire, pig, serum, subcutaneous, pig 68, Study Group 3, SC, ZA […], rHuPH20 10000 U/mL, 10 mL over 1.6 min, time 6 h, read-out: Zoledronic Acid Serum Concentration): 2.68 ng/mL
concentration at […] (female, Yorkshire, pig, serum, subcutaneous, pig 68, Study Group 3, SC, ZA […], rHuPH20 10000 U/mL, 10 mL over 1.6 min, time […], read-out: Zoledronic Acid Serum Concentration): 50.5 ng/mL
Zoledronic Acid Serum Concentration (pig 56, Study Group 3, SC, ZA […], rHuPH20 10000 U/mL, 25 mL over 4 min, time 10 h): BLQ^a (below assay limit of quantification (2.0 ng/mL))
Zoledronic Acid Serum Concentration (pig 56, Study Group 3, SC, ZA […], rHuPH20 10000 U/mL, 25 mL over 4 min, time 24 h): BLQ (below assay limit of quantification (2.0 ng/mL))
Zoledronic Acid Serum Concentration (pig 56, Study Group 3, SC, ZA […], rHuPH20 10000 U/mL, 25 mL over 4 min, time 48 h): BLQ (below assay limit of quantification (2.0 ng/mL))
Zoledronic Acid Serum Concentration (pig 56, Study Group 3, SC, ZA […], rHuPH20 10000 U/mL, 25 mL over 4 min, time 72 h): BLQ (below assay limit of quantification (2.0 ng/mL))
Zoledronic Acid Serum Concentration (pig 56, Study Group 3, SC, ZA […], rHuPH20 10000 U/mL, 25 mL over 4 min, time […]): BLQ (below assay limit of quantification (2.0 ng/mL))
Zoledronic Acid Serum Concentration (pig 58, Study Group 3, SC, ZA […], rHuPH20 10000 U/mL, 50 mL over 8 min, time 8 h): BLQ (below assay limit of quantification (2.0 ng/mL))
Zoledronic Acid Serum Concentration (pig 58, Study Group 3, SC, ZA […], rHuPH20 10000 U/mL, 50 mL over 8 min, time 10 h): BLQ (below assay limit of quantification (2.0 ng/mL))
Zoledronic Acid Serum Concentration (pig 58, Study Group 3, SC, ZA […], rHuPH20 10000 U/mL, 50 mL over 8 min, time 24 h): BLQ (below assay limit of quantification (2.0 ng/mL))
Zoledronic Acid Serum Concentration (pig 58, Study Group 3, SC, ZA […], rHuPH20 10000 U/mL, 50 mL over 8 min, time 48 h): BLQ (below assay limit of quantification (2.0 ng/mL))
Zoledronic Acid Serum Concentration (pig 58, Study Group 3, SC, ZA […], rHuPH20 10000 U/mL, 50 mL over 8 min, time 72 h): BLQ (below assay limit of quantification (2.0 ng/mL))
Zoledronic Acid Serum Concentration (pig 58, Study Group 3, SC, ZA […], rHuPH20 10000 U/mL, 50 mL over 8 min, time […]): BLQ (below assay limit of quantification (2.0 ng/mL))
Zoledronic Acid Serum Concentration (pig 64, Study Group 3, SC, ZA […], rHuPH20 10000 U/mL, 100 mL over 16 min, time 8 h): BLQ (below assay limit of quantification (2.0 ng/mL))
Zoledronic Acid Serum Concentration (pig 64, Study Group 3, SC, ZA […], rHuPH20 10000 U/mL, 100 mL over 16 min, time 10 h): BLQ (below assay limit of quantification (2.0 ng/mL))
Zoledronic Acid Serum Concentration (pig 64, Study Group 3, SC, ZA […], rHuPH20 10000 U/mL, 100 mL over 16 min, time 24 h): BLQ (below assay limit of quantification (2.0 ng/mL))
Zoledronic Acid Serum Concentration (pig 64, Study Group 3, SC, ZA […], rHuPH20 10000 U/mL, 100 mL over 16 min, time 48 h): BLQ (below assay limit of quantification (2.0 ng/mL))
Zoledronic Acid Serum Concentration (pig 64, Study Group 3, SC, ZA […], rHuPH20 10000 U/mL, 100 mL over 16 min, time 72 h): BLQ (below assay limit of quantification (2.0 ng/mL))
Zoledronic Acid Serum Concentration (pig 64, Study Group 3, SC, ZA […], rHuPH20 10000 U/mL, 100 mL over 16 min, time […]): BLQ (below assay limit of quantification (2.0 ng/mL))
Zoledronic Acid Serum Concentration (pig 66, Study Group 3, SC, ZA […], rHuPH20 10000 U/mL, 100 mL over 16 min, time 6 h): BLQ (below assay limit of quantification (2.0 ng/mL))
Zoledronic Acid Serum Concentration (pig 66, Study Group 3, SC, ZA […], rHuPH20 10000 U/mL, 100 mL over 16 min, time 8 h): BLQ (below assay limit of quantification (2.0 ng/mL))
Zoledronic Acid Serum Concentration (pig 66, Study Group 3, SC, ZA […], rHuPH20 10000 U/mL, 100 mL over 16 min, time 10 h): BLQ (below assay limit of quantification (2.0 ng/mL))
Zoledronic Acid Serum Concentration (pig 66, Study Group 3, SC, ZA […], rHuPH20 10000 U/mL, 100 mL over 16 min, time 24 h): BLQ (below assay limit of quantification (2.0 ng/mL))
Zoledronic Acid Serum Concentration (pig 66, Study Group 3, SC, ZA […], rHuPH20 10000 U/mL, 100 mL over 16 min, time 48 h): BLQ (below assay limit of quantification (2.0 ng/mL))
Zoledronic Acid Serum Concentration (pig 66, Study Group 3, SC, ZA […], rHuPH20 10000 U/mL, 100 mL over 16 min, time 72 h): BLQ (below assay limit of quantification (2.0 ng/mL))
Zoledronic Acid Serum Concentration (pig 66, Study Group 3, SC, ZA […], rHuPH20 10000 U/mL, 100 mL over 16 min, time […]): BLQ (below assay limit of quantification (2.0 ng/mL))
Zoledronic Acid Serum Concentration (pig 68, Study Group 3, SC, ZA […], rHuPH20 10000 U/mL, 10 mL over 1.6 min, time 8 h): BLQ (below assay limit of quantification (2.0 ng/mL))
Zoledronic Acid Serum Concentration (pig 68, Study Group 3, SC, ZA […], rHuPH20 10000 U/mL, 10 mL over 1.6 min, time 10 h): BLQ (below assay limit of quantification (2.0 ng/mL))
Zoledronic Acid Serum Concentration (pig 68, Study Group 3, SC, ZA […], rHuPH20 10000 U/mL, 10 mL over 1.6 min, time 24 h): BLQ (below assay limit of quantification (2.0 ng/mL))
Zoledronic Acid Serum Concentration (pig 68, Study Group 3, SC, ZA […], rHuPH20 10000 U/mL, 10 mL over 1.6 min, time 48 h): BLQ (below assay limit of quantification (2.0 ng/mL))
Zoledronic Acid Serum Concentration (pig 68, Study Group 3, SC, ZA […], rHuPH20 10000 U/mL, 10 mL over 1.6 min, time 72 h): BLQ (below assay limit of quantification (2.0 ng/mL))
Zoledronic Acid Serum Concentration (pig 68, Study Group 3, SC, ZA […], rHuPH20 10000 U/mL, 10 mL over 1.6 min, time […]): BLQ (below assay limit of quantification (2.0 ng/mL))
T½ λz (pig, ZA […] 20-min IV infusion, individual pigs 57, 61, 67): 46.8 min
